Measurements taken from ChEMBL document CHEMBL1146708, “4-Amino cyclohexylglycine analogues as potent dipeptidyl peptidase IV inhibitors” (Bioorg Med Chem Lett, 2004).

What was measured:
Dipeptidyl peptidase 4 = Dipeptidyl peptidase 4 (Homo sapiens, UniProt P27487)
Dipeptidyl peptidase 2 = Dipeptidyl peptidase 2 (Homo sapiens, UniProt Q9UHL4); test: Inhibitory activity against quiescent cell prolyl peptidase (QPP).
[1] = Half life in rats; type: ADME, organism-based; details: rat, in vivo
[2] = Plasma clearance in rats; type: ADME, organism-based; details: rat, read-out: Clp
[3] = Oral bioavailability in rat; type: ADME, organism-based; details: in vivo
[4] = molecular target: Voltage-gated inwardly rectifying potassium channel KCNH2 (Homo sapiens, UniProt Q12809); test: Binding affinity for Potassium channel HERG Kv11.1
[5] = Half life in dogs; type: ADME, organism-based, Canis lupus familiaris; details: dog, in vivo
[6] = Clearance in dogs; type: ADME, organism-based, Canis lupus familiaris; details: dog, in vivo
Mus musculus = organism: Mus musculus; test: Compound (3 mpk) was tested for reduction in glucose excursion in mice by using oral glucose tolerance test (OGTT) after 1 hour; type: functional
[7] = Oral bioavailability (F) in dogs; type: ADME, organism-based, Canis lupus familiaris; details: dog, in vivo

Dipeptidyl peptidase 4, sequence (P27487 whole entry): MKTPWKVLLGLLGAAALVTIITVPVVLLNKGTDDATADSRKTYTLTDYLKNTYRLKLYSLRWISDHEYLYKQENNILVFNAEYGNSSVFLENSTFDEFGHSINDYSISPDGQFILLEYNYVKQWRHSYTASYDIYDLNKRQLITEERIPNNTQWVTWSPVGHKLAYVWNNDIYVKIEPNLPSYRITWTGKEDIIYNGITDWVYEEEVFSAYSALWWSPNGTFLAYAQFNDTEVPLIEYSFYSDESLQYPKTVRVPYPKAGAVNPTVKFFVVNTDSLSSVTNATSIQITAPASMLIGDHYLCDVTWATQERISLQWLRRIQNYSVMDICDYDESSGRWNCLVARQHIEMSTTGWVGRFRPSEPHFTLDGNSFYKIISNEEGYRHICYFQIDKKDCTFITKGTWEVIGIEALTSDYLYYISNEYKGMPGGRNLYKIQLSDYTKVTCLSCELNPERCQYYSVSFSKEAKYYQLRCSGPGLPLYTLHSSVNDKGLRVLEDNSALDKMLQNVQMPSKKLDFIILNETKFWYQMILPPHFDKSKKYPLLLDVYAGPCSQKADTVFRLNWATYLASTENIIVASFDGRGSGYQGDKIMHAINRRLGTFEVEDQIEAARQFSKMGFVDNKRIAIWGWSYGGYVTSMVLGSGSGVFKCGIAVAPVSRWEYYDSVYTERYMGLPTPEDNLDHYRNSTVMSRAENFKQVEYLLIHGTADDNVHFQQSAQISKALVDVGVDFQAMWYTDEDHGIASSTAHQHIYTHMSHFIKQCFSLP
Voltage-gated inwardly rectifying potassium channel KCNH2, sequence (Q12809 whole entry): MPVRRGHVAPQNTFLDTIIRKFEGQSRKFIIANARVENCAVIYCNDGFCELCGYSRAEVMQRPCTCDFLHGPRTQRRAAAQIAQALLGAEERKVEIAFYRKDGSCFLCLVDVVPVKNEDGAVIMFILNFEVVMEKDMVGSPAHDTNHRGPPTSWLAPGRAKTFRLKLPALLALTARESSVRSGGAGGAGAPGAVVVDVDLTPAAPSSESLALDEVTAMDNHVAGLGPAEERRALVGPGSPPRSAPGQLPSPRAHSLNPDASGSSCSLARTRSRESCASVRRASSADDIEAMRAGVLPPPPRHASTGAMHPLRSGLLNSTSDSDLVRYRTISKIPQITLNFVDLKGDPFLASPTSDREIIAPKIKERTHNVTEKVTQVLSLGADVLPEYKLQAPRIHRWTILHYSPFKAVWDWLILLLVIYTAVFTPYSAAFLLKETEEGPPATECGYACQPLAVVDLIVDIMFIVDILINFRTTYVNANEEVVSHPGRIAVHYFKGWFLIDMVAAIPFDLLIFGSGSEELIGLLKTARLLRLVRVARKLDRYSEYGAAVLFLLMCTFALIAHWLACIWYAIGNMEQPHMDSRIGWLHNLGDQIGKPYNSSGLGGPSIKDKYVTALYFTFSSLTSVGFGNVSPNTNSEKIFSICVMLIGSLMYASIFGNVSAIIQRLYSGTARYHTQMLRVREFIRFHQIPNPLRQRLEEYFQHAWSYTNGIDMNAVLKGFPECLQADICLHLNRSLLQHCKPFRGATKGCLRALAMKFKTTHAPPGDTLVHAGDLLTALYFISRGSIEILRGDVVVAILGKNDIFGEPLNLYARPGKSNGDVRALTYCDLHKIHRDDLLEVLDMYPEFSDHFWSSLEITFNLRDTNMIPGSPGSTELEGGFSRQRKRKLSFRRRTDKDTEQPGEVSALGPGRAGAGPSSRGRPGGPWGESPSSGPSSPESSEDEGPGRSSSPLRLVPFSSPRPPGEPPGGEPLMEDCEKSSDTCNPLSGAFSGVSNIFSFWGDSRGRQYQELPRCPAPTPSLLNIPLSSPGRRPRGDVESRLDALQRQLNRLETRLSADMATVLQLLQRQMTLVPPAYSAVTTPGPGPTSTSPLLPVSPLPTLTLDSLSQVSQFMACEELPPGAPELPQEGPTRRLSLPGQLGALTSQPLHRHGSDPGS

| SMILES | IC50 (Dipeptidyl peptidase 4) [nM] | IC50 (Dipeptidyl peptidase 2) [nM] | half-life [1] [h] | clearance [2] [mL/min/kg] | bioavailability [3] [%] | further results |
| --- | --- | --- | --- | --- | --- | --- |
| N[C@H](C(=O)N1CCSC1)[C@H]1CC[C@H](N)CC1 | 2700 | – | – | – | – | – |
| N[C@H](C(=O)N1CCSC1)[C@H]1CC[C@H](NC(=O)Nc2ccc(F)c(F)c2)CC1 | 35 | 380 | – | – | – | – |
| N[C@H](C(=O)N1CCSC1)[C@H]1CC[C@H](NC(=O)OCc2ccc3ccccc3c2)CC1 | 20 | 200 | – | – | – | – |
| N[C@H](C(=O)N1CCSC1)[C@H]1CC[C@H](NC(=O)Nc2ccc(OC(F)(F)F)cc2)CC1 | 55 | 350 | – | – | – | – |
| N[C@H](C(=O)N1CCSC1)[C@H]1CC[C@H](NC(=O)c2ccc3ccccc3c2)CC1 | 21 | 230 | – | – | – | – |
| N[C@H](C(=O)N1CCSC1)[C@H]1CC[C@H](NS(=O)(=O)c2ccc(F)c(F)c2F)CC1 | 24 | 960 | – | – | – | – |
| N[C@H](C(=O)N1CCSC1)[C@H]1CC[C@H](NC(=O)c2ccc(I)cc2)CC1 | 33 | 340 | – | – | – | – |
| N[C@H](C(=O)N1CCCC1)[C@H]1CC[C@H](NS(=O)(=O)c2ccc(F)cc2F)CC1 | – | – | 1.8 | 53 | 36 | half-life [5]: 6 h; clearance [6]: 14 mL/min/kg; Reduction (Mus musculus): 36%; bioavailability [7]: 100% |
| N[C@H](C(=O)N1CCSC1)[C@H]1CC[C@H](NC(=O)c2ccc(Cl)c(Cl)c2)CC1 | 38 | 230 | – | – | – | – |
| N[C@H](C(=O)N1CCSC1)[C@H]1CC[C@H](NC(=O)c2ccc(F)c(F)c2)CC1 | – | – | 2 | 30 | 81 | – |
| N[C@H](C(=O)N1CCSC1)[C@H]1CC[C@H](NC(=O)OCc2ccc(Cl)c(Cl)c2)CC1 | 29 | 170 | – | – | – | – |
| N[C@H](C(=O)N1CCSC1)[C@H]1CC[C@H](NC(=O)c2cccc3ccccc23)CC1 | 15 | 900 | 1.2 | 22 | 51 | Ki [4]: 22000 nM |
| N[C@H](C(=O)N1CCSC1)[C@H]1CC[C@H](NC(=O)OCc2cccc3ccccc23)CC1 | 17 | 170 | – | – | – | – |
| N[C@H](C(=O)N1CCSC1)[C@H]1CC[C@H](NC(=O)Nc2ccc(Cl)c(Cl)c2)CC1 | 17 | 170 | – | – | – | – |
| N#Cc1ccc(NCCNCC(=O)N2CCC[C@H]2C#N)nc1 | – | 6600 | – | – | – | – |
| N[C@H](C(=O)N1CCSC1)[C@H]1CC[C@H](NC(=O)c2cnc3ccccc3c2)CC1 | 9 | 230 | – | – | – | – |

Second part, led by results:

| IC50 (Dipeptidyl peptidase 4) [nM] | IC50 (Dipeptidyl peptidase 2) [nM] | half-life [1] [h] | clearance [2] [mL/min/kg] | bioavailability [3] [%] | SMILES | further results |
| --- | --- | --- | --- | --- | --- | --- |
| 23 | 280 | – | – | – | N[C@H](C(=O)N1CCSC1)[C@H]1CC[C@H](NS(=O)(=O)c2ccc(I)cc2)CC1 | – |
| 24 | 820 | – | – | – | N#Cc1cccc(S(=O)(=O)N[C@H]2CC[C@H]([C@H](N)C(=O)N3CCSC3)CC2)c1 | – |
| 46 | 8600 | 2.3 | 13 | 30 | N[C@H](C(=O)N1CCCC1)[C@H]1CC[C@H](NC(=O)c2cccc3ccccc23)CC1 | Ki [4]: 17000 nM |
| 18 | 170 | – | – | – | N[C@H](C(=O)N1CCSC1)[C@H]1CC[C@H](NS(=O)(=O)c2ccc3ccccc3c2)CC1 | – |
| 10 | 210 | 2.3 | 74 | 12 | N[C@H](C(=O)N1CCSC1)[C@H]1CC[C@H](NC(=O)Nc2ccc(I)cc2)CC1 | Ki [4]: 1900 nM |
| 7.5 | 2000 | – | – | – | CN(C)C(=O)Nc1ccc(S(=O)(=O)N[C@H]2CC[C@H]([C@H](N)C(=O)N3CCSC3)CC2)cc1 | – |
| – | – | 4.7 | 21 | 85 | N[C@H](C(=O)N1CCSC1)[C@H]1CC[C@H](NS(=O)(=O)c2ccc(OC(F)(F)F)cc2)CC1 | – |
| – | 15000 | 0.1 | 95 | 0 | N[C@H](C(=O)N1CCCC1)[C@H]1CC[C@H](NS(=O)(=O)c2ccc(NS(=O)(=O)CC(F)(F)F)cc2)CC1 | Ki [4]: > 100000 nM |
| 26 | 12000 | 2.4 | 21 | 1 | CN(C)C(=O)Nc1ccc(S(=O)(=O)N[C@H]2CC[C@H]([C@H](N)C(=O)N3CCCC3)CC2)cc1 | – |
| 98 | 8200 | – | – | – | N[C@H](C(=O)N1CCCC1)[C@H]1CC[C@H](NS(=O)(=O)c2ccc(F)c(F)c2F)CC1 | – |
| – | – | 4 | 28 | 52 | N[C@H](C(=O)N1CCCC1)[C@H]1CC[C@H](NC(=O)OCc2ccccc2)CC1 | – |
| – | – | 3.6 | 31 | 38 | N[C@H](C(=O)N1CCCC1)[C@H]1CC[C@H](NS(=O)(=O)c2ccc(OC(F)(F)F)cc2)CC1 | – |
